Laboratory results: US20060211651A1, “Persulfated oligosaccharide acting on selectins and chemokine” (Taisho Pharmaceutical Co., Ltd., priority 2002, published 2006)

Columns and labels:
P-selectin-Ig = experiment: Immunoprecipitation of versican from ACHN conditioned medium with P-selectin-Ig; type: binding; conditions: 30 mM sodium chlorate; ACHN cells; FIG. 1
Procedure: (§1) ACHN cells were pre-incubated at 37° C. for 6 hours in RPMI 1640 containing 10% by weight of bovine fetal serum in the presence or absence of 30 mM sodium chlorate. A confluent monolayer of the resulting ACHN cells was labeled by incubation for 18 hours in the presence or absence of 30 mM sodium chlorate, in a medium of either of:
(§2) Immunoprecipitation was performed as follows, according to the method described in the publication of Kawashima, H. et al. [Int. Immunol., 11, 393-405 (1999); all teachings of which are hereby incorporated by reference] except that beads were washed using buffer A (0.05% Tween 20, 20 mM HEPES-NaOH, 0.15M NaCl, 1 mM CaCl2, 1 mM MgCl2, pH6.8).
(§3) Each of the antibody and the Ig chimera shown in FIG. 1 (equivalent to 10 μg) was coupled to Protein A-Sepharose column (equivalent to 10 μL) by a conventional method, to obtain antibody-coupled Protein A-Sepharose or Ig chimera-coupled Protein A-Sepharose. […]
(§4) Thereafter, the beads were washed with the buffer A, to obtain precipitates. The resulting precipitates were subjected to SDS-agarose-PAGE, and thereafter, signal ascribed to ^35S label on a gel was detected by autoradiography.

ACHN cells = experiment: Sulfation of versican in [35S]sulfate-labeled ACHN cells; type: cell-based; conditions: 30 mM sodium chlorate, relative to the case without treatment
Procedure: as §1
(i) Eagle minimum basal medium SMEM [sulfate-free; manufactured by BioWhittaker] containing 2% by weight of dialyzed bovine fetal serum in the presence of 0.2 mCi/ml [^35S]Na2SO4 [trade name: Sulfer-35; manufactured by ICN Radiochemicals], or
(ii) methionine-free RPMI 1640 medium [manufactured by Invitrogen] containing 2% by weight of dialyzed bovine fetal serum in the presence of 0.2 mCi/ml [^35S]-methionine [manufactured by ICN Radiochemicals].
Immunoprecipitation was performed as follows, according to the method described in the publication of Kawashima, H. et al. [Int. Immunol., 11, 393-405 (1999); all teachings of which are hereby incorporated by reference] except that beads were washed using buffer A (0.05% Tween 20, 20 mM HEPES-NaOH, 0.15M NaCl, 1 mM CaCl2, 1 mM MgCl2, pH6.8). […]
as §4

L-selectin-Ig = target: T1, L-selectin-Ig (Homo sapiens, UniProt P14151); experiment: Immunoprecipitation of versican from ACHN conditioned medium with L-selectin-Ig; type: binding; conditions: 30 mM sodium chlorate; ACHN cells; FIG. 1
T1 construct: purchased R & D Systems Inc
T1 sequence (P14151 with tags, fused parts or gaps limits assumed): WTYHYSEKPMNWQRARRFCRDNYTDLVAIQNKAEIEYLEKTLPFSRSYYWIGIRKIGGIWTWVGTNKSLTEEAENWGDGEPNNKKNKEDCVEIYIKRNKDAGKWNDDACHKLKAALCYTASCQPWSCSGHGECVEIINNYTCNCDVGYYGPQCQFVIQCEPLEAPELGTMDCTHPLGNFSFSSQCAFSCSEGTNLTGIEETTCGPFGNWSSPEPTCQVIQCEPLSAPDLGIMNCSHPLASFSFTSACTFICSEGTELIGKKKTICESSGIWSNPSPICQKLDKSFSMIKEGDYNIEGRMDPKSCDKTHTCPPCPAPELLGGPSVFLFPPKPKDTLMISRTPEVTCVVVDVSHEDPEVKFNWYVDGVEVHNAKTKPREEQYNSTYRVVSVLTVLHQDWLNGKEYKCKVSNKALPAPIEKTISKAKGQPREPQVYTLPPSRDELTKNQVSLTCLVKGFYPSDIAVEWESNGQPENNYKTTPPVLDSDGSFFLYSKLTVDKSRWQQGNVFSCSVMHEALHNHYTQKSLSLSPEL
Procedure: as §1, §2, §3, §4

CD44-Ig = experiment: Immunoprecipitation of versican from ACHN conditioned medium with CD44-Ig; type: binding, human; conditions: 30 mM sodium chlorate; ACHN cells; FIG. 1
Procedure: as §1, §2, §3, §4

[Na+].[O-][Cl+2]([O-])[O-] [sodium chlorate]
effect of treatment on interaction between versican and P-selectin-Ig (P-selectin-Ig): inhibited
inhibition of sulfation (ACHN cells): more than 90%
effect of treatment on interaction between versican and L-selectin-Ig (L-selectin-Ig): inhibited
effect of treatment on interaction between versican and CD44-Ig (CD44-Ig): not inhibited
